Experiment [1] is described as follows: Direct binding of [H^3]LTE4 to LAD2 cell membranes. Also on record: species or system human. The method, then: (§1) FIG. 10. Competitive ligand binding assays. 10A. […] Specific binding (typically 50-75% of the total) was calculated by subtracting the amount of radiolabel that was insensitive to the selective P2Y12 receptor antagonist 2-MesAMP. Nonspecific binding was essentially identical in the membranes with and without P2Y12 receptor knockdown. The dose response for the LAD2 membranes are from a single experiment repeated four times with similar results. The binding on the LAD2 cells with P2Y12 knocked down was repeated twice. 10B. Specific binding of radiolabeled ADP (2000 nM) to membranes of LAD2 cells. […] Results are mean±SD from three separate experiments. 10C. Conversion of radiolabeled LTD4 to LTE4 as confirmed by HPLC (left). […] Results in a second experiment were similar 10D. Competitive binding of radiolabeled 2-MesADP to COS-7 cells transfected with the human P2Y12 construct.
Competitive radioligand binding assays were performed using [H^3]ADP (the known natural ligand of P2Y12 receptors) and unlabeled LTs as competitors. […]
[^3H] […] Protein concentration was determined using Biorad Protein Assay Kit. […] The residual membrane-associated [^3H] on the filter was determined in 2 ml scintillation fluid by beta counter (Perkin Elmer). For [^3H]ADP, specific binding was determined by subtracting the amount of [^3H] bound in the presence of 100 μM 2-MesADP from total binding.

The subject of experiment [2] is P2Y12 receptors. The experiment in a line: Competitive radioligand binding of [H^3]ADP to LAD2 cell membranes. Details: species or system human. The method, then: as §1
Competitive radioligand binding assays were performed using [H^3]ADP (the known natural ligand of P2Y12 receptors) and unlabeled LTs as competitors. […] The membranes from the transfectants expressing the forward construct bound [P^33]2-MesADP, a selective P2Y12 receptor agonist.
[^3H] […] The converted product was extracted into 400 μl of methanol, evaporated in presence of nitrogen and diluted to the required concentration with the binding buffer for the binding assay. The conversion was confirmed by running an aliquot on high-performance reverse phase liquid chromatography. […] Briefly, cells were washed in PBS, resuspended in PBS supplemented with protease inhibitor cocktail and lysed by sonication for 5 min. The lysed cells were centrifuged at 100,000 Xg for 45 min and the microsomal pellet was resuspended in 1 ml PBS. Protein concentration was determined using Biorad Protein Assay Kit. 50 μg of membrane protein was incubated for 1 h at room temperature in 250 μl of 10 mM Hepes/KOH, pH 7.4, with various concentrations of radiolabeled ligand and cold competitor. Bound [^3H] was separated from free [^3H] by filtration through GF/C filters (Whatman) and washed twice with 10 mM Hepes/KOH, pH 7.4, containing 0.01% BSA. The residual membrane-associated [^3H] on the filter was determined in 2 ml scintillation fluid by beta counter (Perkin Elmer). For [^3H]ADP, specific binding was determined by subtracting the amount of [^3H] bound in the presence of 100 μM 2-MesADP from total binding.

The subject of experiment [3] is LAD2 cells. The experiment in a line: Calcium flux of LAD2 cells stimulated with LTD4 or LTE4. The format is cell-based, human. The conditions noted are these: agonists 500 nM; MK571 1 μM, 2-MesAMP 100 μM. The method, then: FIG. 2. Requirement for P2Y12 receptors in LTE4-mediated LAD2 cell activation. 2A. Calcium flux of LAD2 cells stimulated with the indicated agonists (500 nM) in the presence or absence of the P2Y12 receptor-selective antagonist 2-MeSAMP (100 μM). […] 2B. […] Cells sensitized overnight with IgE and challenged with anti-IgE were used as the positive control. 2C. […] Results in 2B and 2C are mean±SEM from three independent experiments each. 2D. Effect of shRNA-mediated knockdown of P2Y12 receptor mRNA expression by LAD2 cells.
Pre-treatment of the LAD2 cells with 2-MesAMP blocked the LTE4-mediated increment in MIP-1β production by >50% (FIG. 2B). […] To exclude potential off-target effects of the inhibitors, samples of LAD2 cells were transfected with lentiviruses encoding a P2Y12 sequence-specific shRNA, a CysLT1R-specific shRNA, or an empty vector control before stimulation. […] LTE4- and LTD4-dependent production of PGD2 were abrogated by the knockdowns of P2Y12 and CysLT1R, respectively (FIG. 2C, bottom). Neither GPCR knockdown altered MIP-1β generation or PGD2 production in response to IgE-anti-IgE (FIG. 2C). LTE4-mediated MIP-1β generation (FIG. 9A) and ERK activation (FIG. 9B) were not altered by treatment of LAD2 cells with apyrase to degrade extracellular ADP.
LAD2 cells (0.5-1×10^6/sample) were washed and labeled with fura 2-AM for 30 min at 37° C. […]
Background: A change in cytosolic calcium serves as a functional read-out for many receptors and channels.

Experimental findings from US8299097B2, “Methods for treating inflammatory disorders” (The Brigham and Women's Hospital, Inc., priority 2008, dated 2012) are described below.

As to `CCCCC/C=C\C\C=C/C=C/C=C/[C@@H](SC[C@H](N)C(=O)O)[C@@H](O)CCCC(=O)O` [LTE4], the “binding of [H^3]LTE4 to LAD2 cell membranes” value in experiment [1] is on record as “weakly bound”. In addition, the “specific ADP binding blocked” value is on record as 39±9% in experiment [2] (unlabeled LTE4 0.1 nM, mean±SEM, four experiments) and 50±9% in experiment [2] (unlabeled LTE4 1 nM, mean±SEM, four experiments). Moreover, in experiment [2] (unlabeled LTE4 1 μM, mean±SEM, four experiments), the “specific ADP binding blocked (plateau)” value is given as 60±7%. In experiment [2] (unlabeled competitors 10 μM), the “competition with labeled ADP, LTE4 compared with LTD4” value is “more efficacious than LTD4”.

Turning to `CN(C)C(=O)CCSC(SCCC(=O)O)c1cccc(/C=C/c2ccc3ccc(Cl)cc3n2)c1` (stereo not drawn) [MK571], in experiment [3], the “effect on LTD4- or LTE4-mediated calcium flux” value is “blocked calcium responses”.
